Test results as given in the supplement of paper PMC11061612.

Key:
Test in all cases: Bliss excess, mean over the matrix (fraction); higher = more synergy
[1] = tested on: COLO-668 (Small Cell Lung Carcinoma)
How it was run: (§1)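 After 24 hours at 37°C and 5% CO2 in 1536-well plates, cells in DMEM/F12 or RPMI plus 10% FBS received two-drug dose matrices for 72 hours. Viability came from CellTiter-Glo 2.0 luminescence and was scaled as inhibition, anchored at 0 by vehicle wells and at 1 by blank wells. Combination Emax is taken as the second-highest inhibition in the matrix, and Bliss excess as the observed combination effect less EA + EB − EA·EB, with EA and EB the single-agent effects.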

[2] = tested on: EFO-21 (Ovarian Carcinoma)
How it was run: as §1

[3] = tested on: HAL-01 (B-Lymphoblastic Leukemia)
How it was run: as §1

[4] = tested on: KMRC-1 (Kidney Carcinoma)
How it was run: as §1

[5] = tested on: ME-180 (Cervical Carcinoma)
How it was run: as §1

[6] = tested on: ML-2 (Acute Myeloid Leukemia)
How it was run: as §1

[7] = tested on: MOLT-4 (T-Lymphoblastic Leukemia)
How it was run: as §1

[8] = tested on: MV-4-11 (Acute Myeloid Leukemia)
How it was run: as §1

[9] = tested on: NCI-H1355 (Lung Adenocarcinoma)
How it was run: as §1

[10] = tested on: NCI-H1993 (Lung Adenocarcinoma)
How it was run: as §1

[11] = tested on: SNU-387 (Hepatocellular Carcinoma)
How it was run: as §1

[12] = tested on: SW982 (Other Solid Carcinomas)
How it was run: as §1

| SMILES | Bliss excess [1] | Bliss excess [2] | Bliss excess [3] | Bliss excess [4] | Bliss excess [5] | Bliss excess [6] | Bliss excess [7] | Bliss excess [8] | Bliss excess [9] | Bliss excess [10] | Bliss excess [11] | Bliss excess [12] |
| --- | --- | --- | --- | --- | --- | --- | --- | --- | --- | --- | --- | --- |
| O=C(c1cc(Cc2n[nH]c(=O)c3ccccc23)ccc1F)N1CCN(C(=O)C2CC2)CC1 [Olaparib] + CC1(C)CCC(CN2CCN(c3ccc(C(=O)NS(=O)(=O)c4ccc(NCC5CCOCC5)c([N+](=O)[O-])c4)c(Oc4cnc5[nH]ccc5c4)c3)CC2)=C(c2ccc(Cl)cc2)C1 [Venetoclax] (first compound max 10 µM, 7x7, partner max 1 µM) | -0.0261 | -0.0495 | 0.122 | -0.0522 | -0.0274 | 0.115 | 0.124 | 0.0475 | -0.0524 | -0.0397 | -0.0285 | -0.0429 |
| Cc1c2c(nn1C)CSCc1cc(n(C)n1)CSc1cc(c3ccccc3c1)OCCCc1c(C(=O)O)n(C)c3c-2c(Cl)ccc13 [AZD5991] + CC(=O)O[C@H]1C(=O)[C@@]2(C)[C@H]([C@H](OC(=O)c3ccccc3)[C@]3(O)C[C@H](OC(=O)[C@H](O)[C@@H](NC(=O)c4ccccc4)c4ccccc4)C(C)=C1C3(C)C)[C@]1(OC(C)=O)CO[C@@H]1C[C@@H]2O [Paclitaxel] (first compound max 1 µM, 7x7, partner max 3 µM) | 0.028 | 0.0151 | -0.0179 | 0.0286 | 0.0258 | 0.0157 | 0.0219 | 0.0129 | -0.0431 | -0.037 | 0.0019 | -0.0039 |
| O=C(c1cc(Cc2n[nH]c(=O)c3ccccc23)ccc1F)N1CCN(C(=O)C2CC2)CC1 [Olaparib] + COc1nnc2ccc(N3CCC(c4ccc(OCCN5CCN(C)C(=O)[C@H]5C)cc4)CC3)nn12 [AZD5153] (first compound max 10 µM, 7x7, partner max 1 µM) | -0.0335 | -0.0719 | 0.007 | -0.0556 | -0.0279 | -0.0153 | 0.023 | 0.008 | -0.11 | -0.0529 | -0.0768 | -0.0614 |
| C[C@@H](Oc1cc(-c2cnn(C3CCNCC3)c2)cnc1N)c1c(Cl)ccc(F)c1Cl [Crizotinib] + CC1=C(C(=CC=C1)Cl)NC(=O)C2=CN=C(S2)NC3=CC(=NC(=N3)C)N4CCN(CC4)CCO [Dasatinib] (first compound max 10 µM, 7x7, partner max 2 µM) | -0.0289 | 0.0054 | -0.0172 | 0.0644 | 0.038 | -0.0165 | -0.0209 | 0.0161 | -0.0431 | -0.0147 | 0.0371 | 0.0386 |
| C=CCn1c(=O)c2cnc(Nc3ccc(N4CCN(C)CC4)cc3)nc2n1-c1cccc(C(C)(C)O)n1 [AZD1775] + CCc1c2c(nc3ccc(O)cc13)-c1cc3c(c(=O)n1C2)COC(=O)[C@]3(O)CC [SN-38] (first compound max 1 µM, partner max 0.3 µM) | -0.0448 | -0.0193 | -0.0249 | -0.0817 | -0.0039 | -0.0033 | 0.0188 | -0.0281 | -0.0622 | 0.0354 | -0.0303 | -0.0158 |
| C[C@@H](Oc1cc(-c2cnn(C3CCNCC3)c2)cnc1N)c1c(Cl)ccc(F)c1Cl [Crizotinib] + Cn1cnc2c(F)c(Nc3ccc(Br)cc3Cl)c(C(=O)NOCCO)cc21 [Selumetinib] (first compound max 10 µM, 7x7, partner max 10 µM) | 0.0221 | -0.0233 | -0.0267 | -0.0191 | 0.0308 | -0.0083 | -0.0843 | -0.0232 | -0.0223 | 0.0034 | 0.0212 | 0.0165 |
| Cc1c2c(nn1C)CSCc1cc(n(C)n1)CSc1cc(c3ccccc3c1)OCCCc1c(C(=O)O)n(C)c3c-2c(Cl)ccc13 [AZD5991] + CS(=O)(=O)CCNCc1ccc(-c2ccc3ncnc(Nc4ccc(OCc5cccc(F)c5)c(Cl)c4)c3c2)o1 [Lapatinib] (first compound max 1 µM, 7x7, partner max 10 µM) | 0.0395 | 0.0347 | 0.162 | -0.0282 | 0.0624 | 0.0008 | 0.0254 | 0.0343 | 0.0127 |  | -0.028 | -0.0151 |
| C[C@@H](Nc1cc(F)cc(F)c1)c1cc(C(=O)N(C)C)cc2c(=O)cc(N3CCOCC3)oc12 [AZD8186] + CC(=O)c1c(C)c2cnc(Nc3ccc(N4CCNCC4)cn3)nc2n(C2CCCC2)c1=O [Palbociclib] (first compound max 10 µM, 7x7, partner max 10 µM) | 0.0261 | -0.0175 | -0.0022 | -0.0156 | 0.0177 | 0.103 | 0.0712 | 0.0769 | 0.0321 | 0.0847 | -0.0459 | 0.0551 |
| Cc1nc(-c2cn3c(n2)-c2ccc(-c4cnn(C(C)(C)C(N)=O)c4)cc2OCC3)n(C(C)C)n1 [Taselisib] + O=C(Nc1ccc2[nH]nc(-c3ccncc3)c2c1)[C@@H]1CCN(CC(=O)N2CCN(c3ccc(-c4ncccn4)cc3)CC2)C1 [SCH772984] (first compound max 10 µM, 7x7, partner max 5 µM) | 0.0737 | 0.0446 | -0.0711 | -0.0377 | 0.0324 | 0.101 | 0.13 | 0.177 | -0.0124 | 0.111 | 0.122 | -0.0167 |
